# Results as given in patent US20230250096A1, “SUBSTITUTED PHENYL-1H-PYRROLO[2,3-c] PYRIDINE DERIVATIVES” (Janssen Pharmaceutica NV, priority 2021, published 2023).
# Where two headings read alike, the source gives them in different places.
# How the values were obtained:
# Format in all cases: cell-based, human
# KO-52 cells = assay: Proliferation assay (spheroid confluence, 8 days), KO-52 control cell line; settings: Homo sapiens, read-out: spheroid assay_KO-52 IC50
# Method in brief: (§1)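 Cells grown as spheroids in ultra-low attachment round-bottom wells (200 MOLM14 or OCI-AML3, 300 KO-52 per well) with compound dilutions at 0.3% DMSO, 8 days, 37° C. Confluence from live-cell imaging at day 8; % effect normalized to DMSO and high-dose reference/staurosporin, absolute IC50 from variable-slope fit.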
# MOLM14 cells = assay: Proliferation assay (spheroid confluence, 8 days), MOLM14; settings: read-out: spheroid assay_MOLM14 IC50
# Method in brief: as §1
# MEIS1 mRNA expression = MEIS1 mRNA expression assay (Quantigene Singleplex) in MOLM14 cells; settings: 48 hours incubation
# Method in brief: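 MOLM14 cells, 3,750/well, exposed to increasing compound concentrations for 48 h. MEIS1 mRNA measured by QuantiGene Singleplex branched-DNA hybridization (lysis 45 min, hybridization 18–22 h, both 55 °C), normalized to RPL28. IC50 fitted to background-corrected fold change versus DMSO.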
Compound,IC50 (KO-52 cells),"IC50 (MOLM14 cells; Homo sapiens, MOLM-14, MOLM14)","IC50 (MEIS1 mRNA expression; Homo sapiens, MOLM-14, 48 h)",IC50 (MOLM14 cells; MOLM14),IC50 (MEIS1 mRNA expression)
CNC(=O)c1cncc(N2CCC(N3CC(Cc4cn(-c5ccc(F)cc5C(=O)N(C)C(C)C)c5cncc(C)c45)C3)CC2)n1 [Compound 75],2000 nM,9 nM,119 nM,,
CN=S(=O)(c1cc(F)ccc1-n1cc(CC2CCN(CC3CCOCC3)C2)c2c(C)cncc21)C(C)C (stereo not drawn) [Compound 77],5800 nM,90 nM,136 nM,,
CC(=O)N1CCC(C)(CN2CC(Cc3cn(-c4ccc(F)cc4C(=O)N(C)C(C)C)c4cncc(C)c34)C2)CC1 [Compound 84],4300 nM,63 nM,131 nM,,
Cc1cncc2c1c(CC1CN(CC3CCNC(=O)CC3)C1)cn2-c1ccc(F)cc1C(=O)N(C)C(C)C (stereo not drawn) [Compound 104],> 15000 nM,275 nM,254 nM,,
CN=S(=O)(c1cc(F)ccc1-n1cc(CC2CCN(CC3CCN(C(C)=O)CC3)C2)c2c(C)cncc21)C(C)C (stereo not drawn) [Compound 128],7900 nM,146 nM,238 nM,,
Cc1cncc2c1c(CC1CN(CC3CCC(O)CC3)C1)cn2-c1ccc(F)cc1C(=O)N(C)C(C)C (stereo not drawn) [Compound 144],6500 nM,11 nM,11 nM,,
COC(=O)[C@H]1CC[C@@H](CN2CC[C@@H](Cc3cn(-c4ccc(F)cc4C(=O)N(C)C(C)C)c4cncc(C)c34)C2)CC1 [Compound 153],7900 nM,35 nM,77 nM,,
Cc1cncc2c1c(C[C@@H]1CCN(C[C@H]3CC[C@@H](C(=O)N4CCC4)CC3)C1)cn2-c1ccc(F)cc1C(=O)N(C)C(C)C [Compound 178],2900 nM,12 nM,14 nM,,
CNC(=O)[C@H]1CC[C@@H](CN2CC[C@@H](Cc3cn(-c4ccc(F)cc4C(=O)N(C)C(C)C)c4cncc(C)c34)C2)CC1 [Compound 185],11000 nM,23 nM,44 nM,,
CC(=O)N1CCC(CCN2CC[C@@H](Cc3cn(-c4ccc(F)cc4C(=O)N(C)C(C)C)c4cncc(C)c34)C2)CC1 [Compound 189],14400 nM,255 nM,314 nM,,
Cc1cncc2c1c(C[C@@H]1CCN(C[C@H]3CCCCN3)C1)cn2-c1ccc(F)cc1C(=O)N(C)C(C)C [Compound 199],11800 nM,126 nM,338 nM,,
CC(=O)NC1CCC(N2CC[C@@H](Cc3cn(-c4ccc(F)cc4C(=O)N(C)C(C)C)c4cncc(C)c34)C2)CC1 (stereo partly drawn) [Compound 200],> 15000 nM,,,679 nM,~864 nM
CNC(=O)N1CCC(CN2CCC(Cc3cn(-c4ccc(F)cc4C(=O)N(C)C(C)C)c4cncc(C)c34)CC2)CC1 [Compound 202],3400 nM,7 nM,25 nM,,
CON(C)C(=O)N1CCC(CN2CCC(Cc3cn(-c4ccc(F)cc4C(=O)N(C)C(C)C)c4cncc(C)c34)CC2)CC1 [Compound 203],2900 nM,12 nM,43 nM,,
Cc1cncc2c1c(CC1CCN(CC3CCN(C(=O)N4CCOCC4)CC3)CC1)cn2-c1ccc(F)cc1C(=O)N(C)C(C)C [Compound 204],1600 nM,16 nM,79 nM,,
Cc1cncc2c1c(C[C@@H]1CCN(CC3CCC(O)CC3)C1)cn2-c1ccc(F)cc1C(=O)N(C)C(C)C (stereo partly drawn) [Compound 205],2500 nM,19 nM,19 nM,,

Compound,IC50 (KO-52 cells),"IC50 (MOLM14 cells; Homo sapiens, MOLM-14, MOLM14)","IC50 (MEIS1 mRNA expression; Homo sapiens, MOLM-14, 48 h)",IC50 (MOLM14 cells; MOLM14),IC50 (MEIS1 mRNA expression)
Cc1cncc2c1c(C[C@@H]1CCN(CC3CCN(C(N)=O)CC3)C1)cn2-c1ccc(F)cc1C(=O)N(C)C(C)C [Compound 207],14300 nM,16 nM,29 nM,,
CC(=O)N1CC2CC(C1)C2N1CC[C@H](Cc2cn(-c3ccc(F)cc3C(=O)N(C)C(C)C)c3cncc(C)c23)C1 (stereo partly drawn) [Compound 208],> 15000 nM,224 nM,281 nM,,
CC(=O)N1CC2CC(C1)C2N1CC[C@@H](Cc2cn(-c3ccc(F)cc3C(=O)N(C)C(C)C)c3cncc(C)c23)C1 (stereo partly drawn) [Compound 209],12800 nM,458 nM,> 1000 nM,,
CC(=O)NC1CCC(N2CC[C@H](Cc3cn(-c4ccc(F)cc4C(=O)N(C)C(C)C)c4cncc(C)c34)C2)CC1 (stereo partly drawn) [Compound 211],> 15000 nM,169 nM,,,113 nM
CC(=O)N1CCC(CN2CCC(Cc3cn(-c4ccc(F)cc4C(=O)N(C)C(C)C)c4cncc(C)c34)C2C)CC1 (stereo not drawn) [Compound 228],5800 nM,10 nM,,,8 nM
Cc1cncc2c1c(CC1CN(CC3CCOCC3)C1)cn2-c1ccc(F)cc1C(=O)N1CCC2CC21 (stereo not drawn) [Compound 262],2900 nM,15 nM,15 nM,,
Cc1cncc2c1c(CC1CN(CC3CCOCC3)C1)cn2-c1ccc(F)cc1C(=O)N1CC2CC1CO2 (stereo not drawn) [Compound 264],13500 nM,20 nM,25 nM,,
Cc1cncc2c1c(CC1CN(CC3CCOCC3)C1)cn2-c1ccc(F)cc1C(=O)N1CCCC1CO (stereo not drawn) [Compound 268],> 15000 nM,88 nM,37 nM,,
Cc1cncc2c1c(CC1CN(CC3CCOCC3)C1)cn2-c1ccc(F)cc1C(=O)N1CCC[C@H]1C [Compound 279],5100 nM,12 nM,17 nM,,
Cc1cncc2c1c(CC1CN(CC3CCOCC3)C1)cn2-c1ccc(F)cc1C(=O)N(CCO)C(C)C [Compound 281],4200 nM,10 nM,13 nM,,
CC(=O)N1CCC(CN2CC[C@@H](Cc3cn(-c4ccc(F)cc4C(=O)N4CCC5CC54)c4cncc(C)c34)C2)CC1 (stereo partly drawn) [Compound 311],5200 nM,17 nM,18 nM,,
CC(=O)N1CCC(CN2CC[C@@H](Cc3cn(-c4ccc(F)cc4C(=O)N4CC5CC4CO5)c4cncc(C)c34)C2)CC1 (stereo partly drawn) [Compound 312],> 15000 nM,33 nM,55 nM,,
CC(=O)N1CCC(CN2CC[C@@H](Cc3cn(-c4ccc(F)cc4C(=O)N4CCC[C@H]4C)c4cncc(C)c34)C2)CC1 [Compound 315],2400 nM,10 nM,37 nM,,
CC(=O)N1CCC(CN2CC[C@@H](Cc3cn(-c4ccc(F)cc4C(=O)N4[C@@H](C)CC[C@@H]4C)c4cncc(C)c34)C2)CC1 [Compound 316],8900 nM,12 nM,29 nM,,
CC(=O)N1CCC(CN2CC[C@@H](Cc3cn(-c4ccc(F)cc4C(=O)N4CCC[C@@H]4C)c4cncc(C)c34)C2)CC1 [Compound 319],> 15000 nM,139 nM,240 nM,,
CC(=O)N1CCC(CN2CC[C@@H](Cc3cn(-c4ccc(F)cc4C(=O)N(CC(C)O)C(C)C)c4cncc(C)c34)C2)CC1 (stereo partly drawn) [Compound 320],6900 nM,19 nM,23 nM,,
